Laboratory results published in patent US20070117743A1, “New antitumoral compounds” (priority 2003, published 2007).
Where a SMILES comes first, the peptide text is derived from it. Bridges are numbered along the chain shown (N, C = ends). [ ]: non-standard residue; d: D form. The star is where a group is joined. d(aIle) = CC[C@H](C)[C@@H](N)C(=O)O; d(aThr) = C[C@@H](O)[C@@H](N)C(=O)O; hCha = N[C@@H](CCC1CCCCC1)C(=O)O; Hexanoyl(5-Me) = CC(C)CCCC(=O)*; Orn = NCCC[C@H](N)C(=O)O; Dhb = C/C=C(\N)C(=O)O

What was measured:
Type in all cases: cell-based, human
SK-MEL-28 = assay: SRB colorimetric assay of cell growth and viability, SK-MEL-28; details: 48 hours exposure; for CC50: read-out: LC50 MEL-28
HeLa = assay: SRB colorimetric assay of cell growth and viability, HeLa; details: 48 hours exposure; for CC50: read-out: LC50 HELA
IGROV-ET = assay: SRB colorimetric assay of cell growth and viability, IGROV-ET; details: 48 hours exposure; for CC50: read-out: LC50 IGROV-ET
PANC-1 = assay: SRB colorimetric assay of cell growth and viability, PANC-1; details: 48 hours exposure; for CC50: read-out: LC50 PANC-1
HT-29 = assay: SRB colorimetric assay of cell growth and viability, HT-29; details: 48 hours exposure; for GI50: read-out: GI50 HT-29; for CC50: read-out: LC50 HT-29
K-562 = assay: SRB colorimetric assay of cell growth and viability, K-562; details: 48 hours exposure; for CC50: read-out: LC50 K-562
LoVo-Dox = assay: SRB colorimetric assay of cell growth and viability, LoVo-Dox; details: 48 hours exposure; for CC50: read-out: LC50 LOVO-DOX
Procedure, shortened: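 Optical density at 490 nm of solubilized SRB, from triplicate wells, yields GI, TGI and LC values. Before staining, cells are fixed for 60 minutes at 4° C in cold TCA after a 48-hour exposure.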

DU-145 = assay: SRB colorimetric assay of cell growth and viability, DU-145; details: 48 hours exposure
LoVo = assay: SRB colorimetric assay of cell growth and viability, LoVo; details: 48 hours exposure; for CC50: read-out: LC50 LOVO
A-549 = assay: SRB colorimetric assay of cell growth and viability, A-549; details: 48 hours exposure; for GI50: read-out: GI50 A-549; for CC50: read-out: LC50 A-549
SK-BR-3 = assay: SRB colorimetric assay of cell growth and viability, SK-BR-3; details: 48 hours exposure
HeLa-APL = assay: SRB colorimetric assay of cell growth and viability, HeLa-APL; details: 48 hours exposure; for CC50: read-out: LC50 HELA-APL
LNCaP = assay: SRB colorimetric assay of cell growth and viability, LNCaP; details: 48 hours exposure; for GI50: read-out: GI50 LN-caP; for CC50: read-out: LC50 LN-caP
IGROV-1 = assay: SRB colorimetric assay of cell growth and viability, IGROV-1; details: 48 hours exposure

SMILES: C/C=C1\NC(=O)[C@H](Cc2ccccc2)NC(=O)[C@@H](C(C)C)NC(=O)[C@@H]([C@@H](C)CC)NC(=O)[C@H](NC(=O)[C@H](NC(=O)[C@H](CCCN)NC(=O)[C@H]2CCCN2C(=O)[C@H](NC(=O)[C@@H](NC(=O)[C@@H](NC(=O)[C@@H](CC2CCCCC2)NC(=O)CCCC(C)C)[C@@H](C)O)C(C)C)C(C)C)[C@@H](C)CC)[C@@H](C)OC(=O)[C@H](C(C)C)NC1=O [Compound 8, [D-Cha^13]-KF]
- GI50 (SK-MEL-28): 1.45 µM
- TGI MEL-28 (SK-MEL-28): 2.42E−06 Molar
- CC50 (SK-MEL-28): 4.02 µM
- GI50 (HeLa): 1.4 µM
- TGI HELA (HeLa): 2.30E−06 Molar
- CC50 (HeLa): 3.8 µM
- GI50 (IGROV-ET): 0.652 µM
- TGI IGROV-ET (IGROV-ET): 1.44E−06 Molar
- CC50 (IGROV-ET): 3.16 µM
- GI50 (PANC-1): 6.53 µM
- TGI PANC-1 (PANC-1): 6.53E−06 Molar
- CC50 (PANC-1): 6.53 µM
- TGI HT-29 (HT-29): 1.99E−06 Molar
- GI50 (HT-29): 0.992 µM
- CC50 (HT-29): 3.99 µM
- GI50 (K-562): 1.93 µM
- TGI K-562 (K-562): 4.92E−06 Molar
- CC50 (K-562): 6.53 µM
- GI50 (LoVo-Dox): 0.986 µM
- TGI LOVO-DOX (LoVo-Dox): 2.09E−06 Molar
- CC50 (LoVo-Dox): 4.43 µM
- GI50 (DU-145): 1.33 µM
- LC50 (concentration causing 50% net cell kill) (DU-145): 4.26 µM
- TGI DU-145 (DU-145): 2.38E−06 Molar
- GI50 (LoVo): 1.01 µM
- TGI LOVO (LoVo): 1.96E−06 Molar
- CC50 (LoVo): 3.82 µM
- TGI A-549 (A-549): 4.18E−06 Molar
- GI50 (A-549): 1.97 µM
- CC50 (A-549): 6.53 µM
- GI50 (SK-BR-3): 0.484 µM
- LC50 (SK-BR-3): 3.17 µM
- TGI SK-BR-3 (SK-BR-3): 1.25E−06 Molar
- GI50 (HeLa-APL): 1.7 µM
- TGI HELA-APL (HeLa-APL): 2.87E−06 Molar
- CC50 (HeLa-APL): 4.86 µM
- TGI LN-caP (LNCaP): 6.53E−06 Molar
- GI50 (LNCaP): 2.79 µM
- CC50 (LNCaP): 6.53 µM
- GI50 (IGROV-1): 1.04 µM
- LC50 (concentration causing 50% net cell killing) (IGROV-1): 4.29 µM
- TGI IGROV (IGROV-1): 2.11E−06 Molar

SMILES: C/C=C1\NC(=O)[C@H](Cc2ccccc2)NC(=O)[C@@H](C(C)C)NC(=O)[C@@H]([C@@H](C)CC)NC(=O)[C@H](NC(=O)[C@H](NC(=O)[C@H](CCCN)NC(=O)[C@H]2CCCN2C(=O)[C@H](NC(=O)[C@H](CCC2CCCCC2)NC(=O)[C@@H](NC(=O)[C@H](NC(=O)CCCC(C)C)C(C)C)[C@@H](C)O)C(C)C)[C@@H](C)CC)[C@@H](C)OC(=O)[C@H](C(C)C)NC1=O [Compound 9, [hCh^11]-KF] ({Hexanoyl(5-Me)}-[dV]T[hCha][dV][dP][Orn][d(aIle)][d(aThr)][d(aIle)][dV]F[Dhb]V; ester 8-C)
- GI50 (SK-MEL-28): 0.321 µM
- TGI MEL-28 (SK-MEL-28): 9.44E−07 Molar
- CC50 (SK-MEL-28): 2.62 µM
- GI50 (HeLa): 0.356 µM
- TGI HELA (HeLa): 1.12E−06 Molar
- CC50 (HeLa): 2.92 µM
- GI50 (IGROV-ET): 0.278 µM
- TGI IGROV-ET (IGROV-ET): 8.09E−07 Molar
- CC50 (IGROV-ET): 2.94 µM
- GI50 (PANC-1): 2.25 µM
- TGI PANC-1 (PANC-1): 5.27E−06 Molar
- CC50 (PANC-1): 6.47 µM
- TGI HT-29 (HT-29): 1.92E−07 Molar
- GI50 (HT-29): 0.086 µM
- CC50 (HT-29): 0.429 µM
- GI50 (K-562): 1.72 µM
- TGI K-562 (K-562): 3.39E−06 Molar
- CC50 (K-562): 6.47 µM
- GI50 (LoVo-Dox): 0.0507 µM
- TGI LOVO-DOX (LoVo-Dox): 1.30E−07 Molar
- CC50 (LoVo-Dox): 0.305 µM
- GI50 (DU-145): 0.455 µM
- LC50 (concentration causing 50% net cell kill) (DU-145): 3.28 µM
- TGI DU-145 (DU-145): 1.24E−06 Molar
- GI50 (LoVo): 0.0957 µM
- TGI LOVO (LoVo): 1.93E−07 Molar
- CC50 (LoVo): 0.39 µM
- TGI A-549 (A-549): 4.48E−07 Molar
- GI50 (A-549): 0.184 µM
- CC50 (A-549): 1.64 µM
- GI50 (SK-BR-3): 0.149 µM
- LC50 (SK-BR-3): 1.36 µM
- TGI SK-BR-3 (SK-BR-3): 3.66E−07 Molar
- GI50 (HeLa-APL): 0.391 µM
- TGI HELA-APL (HeLa-APL): 1.20E−06 Molar
- CC50 (HeLa-APL): 2.75 µM
- TGI LN-caP (LNCaP): 2.33E−06 Molar
- GI50 (LNCaP): 0.925 µM
- CC50 (LNCaP): 5.85 µM
- GI50 (IGROV-1): 0.237 µM
- LC50 (concentration causing 50% net cell killing) (IGROV-1): 3.31 µM
- TGI IGROV (IGROV-1): 7.76E−07 Molar
